Columns and labels:
[1] = system: Erk1/2; assay: Erk1/2 phosphorylation in PASC1 cells, Western blot; assay type: cell-based, rat
Method: A total of 3 × 10^4 PASC1 cells/dish were grown in 5 cm culture dishes as described above. Cells were then incubated for 24 h with 1% FCS before testosterone or P1 were added to the medium to reach the desired final concentration. The ethanol vehicle for testosterone was added to the peptide-treated cells and untreated controls at the same concentration as in cell cultures treated with testosterone. After 24 h, the medium was aspired and the cells were washed twice in ice-cold DPBS. Cells were then incubated with 400 µL lysis buffer (Cell Signaling Technologies, Frankfurt, Germany) containing 1 µM PMSF, 1× protease inhibitor cocktail (Roche, Mannheim, Germany), and 2 µg/mL pepstatin that was added immediately before use. All further steps were carried out on ice. After 5 min of incubation, cells were detached using a cell scraper. The suspensions were then transferred into 1.5 mL vials and sonicated 5 times for 1 s each with intervals of 1 s. After centrifugation of the lysates at 4 °C and 13,000× g for 10 min, the protein concentration in the supernatants was determined at 540 nm using a bicinchoninic acid protein assay reagent kit (Pierce, Southfield, MI, USA) and a Labsystems (Helsinki, Finland) plate reader. The BSA protein standard contained lysis buffer at the same concentration as in the samples from the cell lysates. Supernatants were then aliquoted and maintained at −20 °C until further use.
A total of 10 µg protein from PASC1 cell lysates was run on SDS-PAGE gels containing 10% acrylamide and 0.3% N,N′-methylene-bis-acrylamide. Biotinylated proteins (Cell Signaling Technologies) were run in parallel as molecular weight markers. After electrophoresis, proteins were semi-dry electro-blotted onto PVDF membranes (Merck Chemicals GmbH, Schwalbach, Germany) for 30 min at […]. The membranes were then incubated for 1 h at room temperature in 5% (w/w) non-fat dry milk. Primary antibodies against phospho-Erk1/2, total-Erk1/2, or beta-actin were diluted according to the recommendations of the manufacturers and then incubated with the PVDF membranes overnight at 4 °C (see Supplementary Table S1 for all antibodies with dilutions and manufacturers). After washing in DPBS, the membranes were incubated under continuous mild agitation on an orbital shaker for 60 min at room temperature with a horseradish peroxidase-conjugated secondary antibody. An anti-biotin, HRP-conjugated antibody at a dilution of 1:2000 was also included in the mixture containing the secondary antibody in order to detect the biotinylated molecular weight marker. Antibody-labeled protein bands were visualized by enhanced chemiluminescence.
Figure 5 Western blot analysis of phospho-Erk1/2. PASC1 cells were stimulated for 24 h with various concentrations of testosterone or IAPG. (A) Phospho-Erk1/2 detection after stimulation with testosterone and (B) after stimulation with IAPG. […] For each diagram: n = 3; means ± SEM. Original Western blots are shown in Supplementary Figure S1.

[2] = system: ZO-1; assay: ZO-1 expression in PASC1 cells, immunofluorescence; assay type: cell-based, rat; settings: 10 nM testosterone or 10 µM IAPG, 24 h, n = 3 × 25
Method: PASC1 cells were plated at a density of 3.0 × 10^4 on 24-well plates (1 mL/well) and incubated 48 h at 37 °C and 5% CO2 until a confluence of roughly 80% was reached. […] Cells were then washed with DPBS three times for 5 min, and then incubated in blocking solution (PBS with 3% BSA and 0.3% Triton X-100, both from Sigma-Aldrich) for 1 h at room temperature. The blocking solution was replaced by fresh blocking solution containing the primary antibodies for detection of either AR, p-Erk1/2, p-CREB/p-ATF-1, claudin-1 (Cldn-1), or zonula occludens-1 (ZO-1) (Supplementary Table S1) and incubated overnight at 4 °C. Cells were washed 3 times with DPBS for 3 min each at RT on an orbital shaker, freshly made blocking solution with the appropriate Alexafluor 488-conjugated donkey anti-rabbit secondary antibody was added for 1 h at room temperature on an orbital shaker. After washing 3 times with DPBS, images were obtained using an inverse Olympus IX81 microscope equipped with a fluorescence system. […] The data obtained were analyzed by GraphPad Prism5 (GraphPad Software, Inc., La Jolla, CA, USA).
(§1) For silencing ZIP9 or AR expression, PASC1 cells were treated with commercially available siRNA directed against the expression of ZIP9 or the AR by following the manufacturer’s protocol (Silencer ® Select, siRNA Invitrogen, Darmstadt, Germany). The following oligonucleotides were used: 5′ […]tt3′ and 5′ […]ta 3′ (ZIP9-siRNA for ZIP9 silencing) and 5′[…]tt3′ plus 5′ […]ag 3′ (AR-siRNA for AR silencing). Negative control siRNA (nc-siRNA) was provided in the siRNA kit from the same manufacturer. After incubation of PASC1 for 48 h with ZIP9-siRNA, AR-siRNA, or nc-siRNA, preparation of samples for qRT-PCR, TER measurement, or immunofluorescence experiments were carried out as described above.

[3] = system: Sertoli cell line 93RS2; settings: 93RS2 cells; ZIP9-mediated; cited from earlier work
Source text: The testosterone receptor responsible for the stimulation of the expression of TJ proteins and the formation of the BTB, however, remains to be defined. The classical androgen receptor (AR) has for decades been undisputed as the mediator of all testosterone effects, including the stimulation of TJ formation at the BTB; however, recent investigations have challenged this assumption. ZIP9, a rather recently identified membrane-bound androgen receptor and zinc transporter from the family of ZRT/IRT-like proteins (ZRT = zinc-regulated transporter; IRT = iron-regulated transporter) ...

[4] = system: Cldn-1; assay: Cldn-1 expression in PASC1 cells, immunofluorescence; assay type: cell-based, rat; settings: 10 nM testosterone or 10 µM IAPG, 24 h, n = 3 × 25
Method: PASC1 cells were plated at a density of 3.0 × 10^4 on 24-well plates (1 mL/well) and incubated 48 h at 37 °C and 5% CO2 until a confluence of roughly 80% was reached. Cells were rinsed with DPBS and fixed with 100% ice-cold methanol (Roth, Karlsruhe, Germany) on ice for 10 min directly or after stimulation with vehicle, 10 nM testosterone, or 1 µM P1 for 24 h. Cells were then washed with DPBS three times for 5 min, and then incubated in blocking solution (PBS with 3% BSA and 0.3% Triton X-100, both from Sigma-Aldrich) for 1 h at room temperature. The blocking solution was replaced by fresh blocking solution containing the primary antibodies for detection of either AR, p-Erk1/2, p-CREB/p-ATF-1, claudin-1 (Cldn-1), or zonula occludens-1 (ZO-1) (Supplementary Table S1) and incubated overnight at 4 °C. Cells were washed 3 times with DPBS for 3 min each at RT on an orbital shaker, freshly made blocking solution with the appropriate Alexafluor 488-conjugated donkey anti-rabbit secondary antibody was added for 1 h at room temperature on an orbital shaker. After washing 3 times with DPBS, images were obtained using an inverse Olympus IX81 microscope equipped with a fluorescence system. […] The data obtained were analyzed by GraphPad Prism5 (GraphPad Software, Inc., La Jolla, CA, USA).
as §1

Compound: C[C@]12CC[C@H]3[C@@H](CCC4=CC(=O)CC[C@@]43C)[C@@H]1CC[C@@H]2O [testosterone]
- Total expression of Erk1/2 or beta-actin [1]: did not affect total expression of Erk1/2 or beta-actin
- EC50 ([1]; Rattus norvegicus, 24 h per legend, within 30 min per text, 10^-10 to 10^-7 M, n = 3, means ± SEM): 350 pM
- Concentration needed for maximum stimulation of Erk1/2 phosphorylation ([1]; testosterone): 0.01 µM
- Stimulated ZO-1 fluorescence, nc-siRNA versus AR-siRNA [2]: not significantly different
- ZO-1 expression (fluorescence signal) ([2]; ZIP9-siRNA): The ZO-1 fluorescence was unchanged by the ligands
- ZO-1 expression (fluorescence signal) ([2]; nc-siRNA): the ZO-1-corresponding signal was significantly intensified
- Expression of claudin-1 and claudin-5 [3]: increased expression of claudin-1 and claudin-5
- TJ formation [3]: enhanced TJ formation
- Cldn-1 expression ([4]; AR-siRNA): stimulated the expression of Cldn-1
- Cldn-1 expression ([4]; ZIP9-siRNA): failed to do so
- Cldn-1 expression ([4]; nc-siRNA): stimulated the expression of Cldn-1

Compound: IAPG
- Total expression of Erk1/2 or beta-actin [1]: did not affect total expression of Erk1/2 or beta-actin
- Concentration needed for maximum stimulation of Erk1/2 phosphorylation ([1]; IAPG): 10 µM
- Stimulated ZO-1 fluorescence, nc-siRNA versus AR-siRNA [2]: not significantly different
- ZO-1 expression (fluorescence signal) ([2]; ZIP9-siRNA): The ZO-1 fluorescence was unchanged by the ligands
- ZO-1 expression (fluorescence signal) ([2]; nc-siRNA): the ZO-1-corresponding signal was significantly intensified
- Cldn-1 expression ([4]; AR-siRNA): stimulated the expression of Cldn-1
- Cldn-1 expression ([4]; ZIP9-siRNA): failed to do so
- Cldn-1 expression ([4]; nc-siRNA): stimulated the expression of Cldn-1

Reference: PMC9138102, “The Role of ZIP9 and Androgen Receptor in the Establishment of Tight Junctions between Adult Rat Sertoli Cells” (Biology, 2022)
